In brackets after ≈: the same amount, converted by molar mass. Where two headings read alike, the source gives them in different places.
How the values were obtained:
[1] = system: murine neuroblastoma cells (MNA); assay: Inhibition of cell proliferation (ICP) assay, MNA; format: cell-based; conditions: MNA, 2 days, 37 °C
Experimental: The plate-grown biomass of the fungal pure cultures (100–300 mg) was extracted with ethanol as described earlier. The toxicity assays, namely BSMI assay after exposure for 30 min (rapid inhibition) and for one day (slow inhibition), SMID assay and ICP assay, were all described previously. The toxicity assays involving the ethanol extracts obtained from pure fungal cultures were performed using porcine cells (sperms and somatic cell lines) as indicators according to methods described before. The calculation of EC50—the half maximal effective concentration for the ethanol-dry substances and pure mycotoxins in the BSMI, SMID and ICP assays—were described previously.
The continuous cell line PK-15 (porcine kidney cells) and a malignant cell line (MNA cell line) provided by EVIRA (Helsinki, Finland) were used in the ICP assay. 5,5′,6,6′-tetrachloro-1,1′,3,3′-tetraethyl-benzimidazolylcarbocyanine iodide (JC-1, 3520-43-2), PI (25535-16-4) and calcein-AM (148504-34-1) were obtained from Invitrogen (Carlsbad, CA, USA). Alamethicin A4665 (T. arundinaceum) (CAS 27061-78-5), a mixture of alamethicin F50 peptaibols (MW 1962, 1976, 1976 and 1990), chaetoglobosin A (CAS 50335-03-0), sterigmatocystin (CAS 10048-13-5) and ochratoxin A (CAS 303-47-9) were obtained from Sigma-Aldrich (St. Louis, MO, USA). Malt extract and tryptic soy agar were obtained from Scharlab (Barcelona, Spain). The other chemicals were of analytical grade and were purchased from local suppliers. The biocides and the wetting agent Genapol-080 were purchased from Sigma-Aldrich Finland. The fungicide Boracol 10Rh was obtained from a local supplier. The selected biocides were Borax (600 µg mL^−1; sodium tetraborate, CAS: 1330-43-4), Boracol 10Rh containing disodium octaborate tetrahydrate (CAS: 12280-03-04) and didecyldimethylammonium chloride [CAS: 7173-51-5]), PHMB (CAS: 27083-27-8), phenoxyethanol (CAS: 122-99-6), chloramine, triclosan (5-Chloro-2-(2,4-dichlorophenoxy)phenol, CAS: 3380-34-5) and the wetting agent Genapol X-080 (CAS: 9043-30-5). Genapol X-080 and the biocides were purchased from Sigma-Aldrich, except for Boracol 10Rh, which was purchased from a local supplier.

resting boar spermatozoa [2] = assay: Plasma membrane integrity of resting spermatozoa (SMIDR), calcein-AM + PI; format: cell-based; conditions: resting boar sperm, 24 °C; for CC50: Spermatozoa, 48 h, 2 days, read-out: EC50 Lethal Toxicity SMIDR 2 days
Experimental: The long-term effects of exposure to chaetoglobosin A and to the chaetoglobosin-containing extracts of the Ch. globosum MTAV35 and MTAV37 strains were measured in resting sperm cells exposed at 24 °C for two days. Three criteria were assessed: (1) the motility inhibition of resting boar spermatozoa (BSMIR); (2) the change in mitochondrial membrane potential (ΔΨ) observed using the potentiometric dye JC-1; and (3) the plasma membrane integrity (SMIDR) observed using the viability stain calcein-AM + propidium iodide (PI). […] By contrast, the EC50 concentrations in the SMIDR assays, which measured the lethal damages in plasma membrane after incubation for two days, were >50 times higher (Figure 5 and Table 3).
(§1) The boar sperm cells exposed for 2 days to commercial chaetoglobosin A and the crude extract of MTAV35 and MTAV37 were double-stained with the viability stains PI + calcein–AM, the SMIDR assay, as described earlier. The staining protocol was as follows: 200 μL of extended boar semen containing 27 × 10^6 sperm cells mL^−1 was mixed with 200 μL PBS containing 3 μg mL^−1 calcein-AM and 10 μg mL^−1 PI. The ΔΨm assay monitored the mitochondrial membrane potential changes (ΔΨm) by staining with the lipophilic potentiometric dye JC-1 as described by Mikkola et al. (2015). For the staining with JC-1 (35 µg mL^−1), 200 µL of the sperm cells were shaken and incubated at 37 °C for 5 min. After staining, the cells exposed in the SMIDR and the ΔΨm assays were inspected with fluorescence microscope using 400× magnification (Nikon Eclipse E600, Nikon Corporation, Tokyo Japan) with filters BP 450–490 nm/LP 520. The calcein–AM-stained cells with intact plasma membranes produced green fluorescence, whereas the PI-dyed cells with damaged plasma membranes produced red fluorescence. In JC-1 stained sperm cells, mitochondria with high membrane potential emitted yellow fluorescence, whereas depolarized mitochondria fluoresced green.
(§2) The EC50 concentration in these microscopic assays was defined as the lowest concentration where the ratio of cells similar to those in the solvent control was less than 50%. This EC50 fitted between EC90 and EC10 observed in the microscope calculating ca. 100–120 sperm cells from three microscopic fields. The maximal difference between four parallel tests in each of the two methods was one dilution step. The assays were calibrated with triclosan.

[3] = system: porcine kidney cells (PK-15); assay: cells; format: cell-based; conditions: for EC50: Sus scrofa, 48 h, read-out: EC50 ICP PK-15 2 days
resting boar spermatozoa [4] = assay: Motility inhibition of resting boar spermatozoa (BSMIR); format: cell-based; conditions: resting boar sperm; for EC50: Spermatozoa
Experimental: (§3) Three criteria were assessed: (1) the motility inhibition of resting boar spermatozoa (BSMIR); (2) the change in mitochondrial membrane potential (ΔΨ) observed using the potentiometric dye JC-1; and (3) the plasma membrane integrity (SMIDR) observed using the viability stain calcein-AM + propidium iodide (PI). […] By contrast, the EC50 concentrations in the SMIDR assays, which measured the lethal damages in plasma membrane after incubation for two days, were >50 times higher (Figure 5 and Table 3).
The procedure for the BSMIR assay measuring sublethal toxicity as motility inhibition, i.e., inability to respond to induction of motility in resting sperm cells is described below: The ethanol solutions (0.5–10 μL) were dispensed in 2000 μL of extended boar semen (Figen Ltd., Tuomikylä, Finland, density of 27 × 10^6 sperms mL^−1) incubated at 24 °C, and motility of the sperms was inspected in the phase-contrast microscope (400× magnification) with a heated stage, (Olympus CKX41, Tokyo, Japan; magnification 400×) and an image recording software (Cellsense® standard version 11.0.06, Olympus Soft Imaging Solutions GmbH, Münster, Germany, 2012) as described previously. […] The EC50 was calculated from the equation of the straight line between EC50-40 and EC80-90: Y = −ΔY/ΔX × X + C where Y is the motility closest to 50% of the motility of the solvent control, X is the EC50 concentration and C is a constant between 100% and 60%. All tests were run in triplicates and differences between replicate tests were within one dilution step (2-fold). The sperm assays were calibrated with triclosan and valinomycin.

resting PK-15 cells = assay: Mitochondrial damage test: accelerated glucose consumption and extracellular acidosis; format: cell-based, porcine; conditions: for sublethal concentration that promoted the acceleration of glycolysis: PK-15 cells, positive controls for mitochondrial toxicity; for EC50: Sus scrofa
Experimental: The mitochondria were depolarized in sperm cells exposed to sublethal concentrations of chaetoglobosin A (Figure 5) and to the chaetoglobosin-containing extracts (Table 3). This observation aroused the suspicion regarding mitochondrial toxicity. The mitochondrial toxicity of the extracts containing chaetoglobosin was assessed by measuring the accelerated glucose consumption in resting PK-15 cells. […] By contrast, the positive controls for mitochondrial toxicity—enniatin B, moniliformin and valinomycin at sublethal concentrations of 1.5, 4 and 5 ng mL^−1, respectively—promoted the acceleration of glycolysis.
The test for mitochondrial damage as indicated by accelerated glucose consumption and extracellular acidosis was described earlier. The PK-15 cells were grown in 8-well flat-bottom chamber glass slides, seeded to a density of 4 × 10^4 cells mL^−1, in the respective medium for 48 h. The twofold serially diluted test substances or the vehicle only was dispensed into the wells. The glucose content of the wells was measured by using a glucose meter (Precision Xceed; Abbott Diabetes Care Ltd., Berkshire, United Kingdom). In wells that received nothing or the vehicle only, the glucose concentration decreased from an initial concentration (0 h) of 12 to 6 mM (24 h), but the pH remained as pH of 7.2. A glucose concentration after 24 h of ≤3 mM indicated excessive glucose consumption. Prior to the measurement of the pH, the chamber slides were transferred into ambient air for 1 h to allow CO2 to evaporate. A pH drop of 0.5 units in the toxin-exposed well compared to the vehicle only was considered proof of acidosis. Mitochondrial depolarization (ΔΨm assay) was read by a fluorescence microscope after 26 h of exposure to the toxicants from the monolayers double stained with the membrane potential-responsive fluorogenic dye JC-1 and with propidium iodide to assess the relaxing of the plasma membrane permeability barrier, similar to what was reported previously for sperm cells (27).

resting boar spermatozoa [5] = assay: Mitochondrial membrane potential (ΔΨm) assay with JC-1 in resting spermatozoa; format: cell-based; conditions: resting boar sperm; for EC50: Spermatozoa
Experimental: as §3, §1, §2

boar spermatozoa [6] = assay: cells; format: cell-based; conditions: for EC50: Spermatozoa, read-out: EC50 SMIDM Boar Sperm 2 h
boar spermatozoa [7] = assay: cells; format: cell-based; conditions: for EC50: Spermatozoa, read-out: EC50 BSMIM Boar Sperm 20 min
[8] = 20 min, motile boar sperm, 20 min, 37 °C
[9] = 48 h, 24 °C, 2 days, read-out: EC50 Sublethal Toxicity BSMIR 2 days
[10] = 24 h, PK-15, 1 day, read-out: EC50 Sublethal Toxicity Acceleration of glycolysis 1 day
[11] = 48 h, PK-15, 2 days, read-out: EC50 Sublethal Toxicity Acidosis 2 days
[12] = 48 h, JC-1, 2 days, read-out: EC50 Sublethal Toxicity Depletion of ΔΨm 2 days

Molecule | EC50 Sublethal Toxicity BSMIR 2 days (resting boar spermatozoa [4]; 24 °C, 2 days) [µg/mL] | EC50 Sublethal Toxicity Acceleration of glycolysis 1 day (resting PK-15 cells; PK-15, 1 day) | EC50 Sublethal Toxicity Acidosis 2 days (resting PK-15 cells; PK-15, 2 days) | EC50 Sublethal Toxicity Depletion of ΔΨm 2 days (resting boar spermatozoa [5]; JC-1, 2 days) | EC50 ([3]; PK-15, 2 days, 37 °C) [µg/mL] | EC50 (boar spermatozoa [6]; motile boar sperm, 2 h, 37 °C) [µg/mL] | EC50 (boar spermatozoa [7]; [8]) [µg/mL] | sublethal concentration that promoted the acceleration of glycolysis (resting PK-15 cells) [ng/mL] | lethal concentration in resting PK-15 cells (number in parenthesis) (resting PK-15 cells) [µg/mL] | CC50 (resting boar spermatozoa [2]) [µg/mL] | EC50 (resting boar spermatozoa [4]; [9]) [ng/mL] | EC50 (resting PK-15 cells; [10]) [µg/mL] | EC50 (resting PK-15 cells; [11]) [µg/mL] | EC50 (resting boar spermatozoa [5]; [12]) [ng/mL] | also measured
Alamethicin | 0.2 | None | None | 0.2 µg/mL | – | – | – | – | – | – | – | – | – | – | EC50 ICP MNA 2 days [1]: 8 µg dry wt mL^−1; EC50 Lethal Toxicity SMIDR 2 days (resting boar spermatozoa [2]): 0.2 µg/mL; EC50 ICP PK-15 2 days ([3]; PK-15, 2 days, 37 °C): 8 µg dry wt mL^−1; EC50 SMIDM Boar Sperm 2 h (boar spermatozoa [6]; motile boar sperm, 2 h, 37 °C): 1 µg dry wt mL^−1; EC50 BSMIM Boar Sperm 20 min (boar spermatozoa [7]; motile boar sperm, 20 min, 37 °C): 5 µg dry wt mL^−1
CC1=C2C(=CO[C@H](C)[C@H]2C)C(O)=C(C(=O)O)C1=O [Citrinin, reference compound] | – | – | – | – | 10 (≈ 40 µM) | 50 (≈ 200 µM) | > 100 | – | – | – | – | – | – | – | EC50 ([1]; Mus musculus, Neuroblastoma cell, 48 h, read-out: EC50 ICP MNA 2 days): 10 µg/mL (≈ 40 µM)
O=c1cc(O)c1=O [Moniliformin] | 2 (≈ 20.4 µM) | 4 µg/mL | 4 µg/mL (≈ 40.8 µM) | None | – | – | – | 4 | 40 | – | – | – | – | – | –
CC(C)[C@@H]1NC(=O)[C@H](C)OC(=O)[C@@H](C(C)C)NC(=O)[C@@H](C(C)C)OC(=O)[C@H](C(C)C)NC(=O)[C@H](C)OC(=O)[C@@H](C(C)C)NC(=O)[C@@H](C(C)C)OC(=O)[C@H](C(C)C)NC(=O)[C@H](C)OC(=O)[C@@H](C(C)C)NC(=O)[C@@H](C(C)C)OC1=O [Valinomycin] | – | – | – | – | 14 (≈ 12.6 µM) | 70 (≈ 63 µM) | 0.0001 (≈ 9e-05 µM) | 5 | 5 | 5 | 0.05 (≈ 4.5e-05 µM) | 0.005 (≈ 0.0045 µM) | 0.005 (≈ 0.0045 µM) | 0.05 (≈ 4.5e-05 µM) | EC50 (resting boar spermatozoa [4]; 96 h, 4 days, read-out: EC50 Sublethal Toxicity BSMIR 4 days): 0.05 ng/mL (≈ 4.5e-05 µM); EC50 (resting boar spermatozoa [5]; 96 h, JC-1, 4 days, read-out: EC50 Sublethal Toxicity Depletion of ΔΨm 4 days): 0.05 ng/mL (≈ 4.5e-05 µM)
CC(C)[C@H]1C(=O)O[C@H](C(C)C)C(=O)N(C)[C@@H](C(C)C)C(=O)O[C@H](C(C)C)C(=O)N(C)[C@@H](C(C)C)C(=O)O[C@H](C(C)C)C(=O)N1C [Enniatin B] | – | – | – | – | – | – | – | – | 50 | > 50 | 5000 (≈ 7.81 µM) | 5 (≈ 7.81 µM) | 5 (≈ 7.81 µM) | 5000 (≈ 7.81 µM) | –
COc1cc2c(c3oc4cccc(O)c4c(=O)c13)[C@@H]1C=CO[C@@H]1O2 [Sterigmatocystin, sterigmatocystin] | – | – | – | – | – | – | – | – | – | – | – | – | – | – | EC50 ICP PK-15 2 days [3]: 0.5 µg dry wt mL^−1; EC50 SMIDM Boar Sperm 2 h (boar spermatozoa [6]): >20 µg dry wt mL^−1; EC50 BSMIM Boar Sperm 20 min (boar spermatozoa [7]): >20 µg dry wt mL^−1
